Usually Ki stands for a measure of affinity in units of concentration, obtained from inhibition or displacement.

Molecules are shown by their SMILES.

22 molecules from patent US20080306056A1, “PYRAZOLE-DERIVATIVES AS FACTOR Xa INHIBITORS” (SANOFI-AVENTIS DEUTSCHLAND GMBH, priority 2002, published 2008) can be followed below.

The target of this assay is T1, human factor Xa (Homo sapiens, UniProt P00742).
T1 construct: 25 μl human factor Xa (Enzyme Research Laboratories, Inc; South Bend, Ind.); purchased Enzyme Research Laboratories, Inc; South Bend, Ind
T1 sequence (P00742 235-488 limits assumed): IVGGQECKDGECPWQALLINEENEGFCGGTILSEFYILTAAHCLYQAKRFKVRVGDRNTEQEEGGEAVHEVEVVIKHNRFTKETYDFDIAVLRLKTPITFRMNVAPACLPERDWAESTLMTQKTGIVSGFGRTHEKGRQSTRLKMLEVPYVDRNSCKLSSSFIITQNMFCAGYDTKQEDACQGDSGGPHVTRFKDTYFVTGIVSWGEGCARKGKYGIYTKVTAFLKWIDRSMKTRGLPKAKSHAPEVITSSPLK
T1 sequence (P00742 41-179 partner limits assumed): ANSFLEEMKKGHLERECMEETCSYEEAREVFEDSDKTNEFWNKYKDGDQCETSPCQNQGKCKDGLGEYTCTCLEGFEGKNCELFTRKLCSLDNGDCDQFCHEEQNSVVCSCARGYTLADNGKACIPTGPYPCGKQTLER
Description: Factor Xa assay (chromogenic, purified enzyme). The settings on record: inhibition constant for factor Xa; chromogenic substrate S-2765 140 μM, enzyme 0.5 nM, 25° C., pH 7.8; Ki=IC50/{1+(substrate concentration/Km)}; read-out: Ki(FXa). The assay is classed as biochemical. The source says: The ability of the compound of formulae I, Ib and Ic to inhibit factor Xa or factor VIIa or other enzymes like thrombin, plasmin, or trypsin can be assessed by determining the concentration of the compound of the formulae I, Ib and Ic that inhibits enzyme activity by 50%, i.e. the IC50 value, which was related to the inhibition constant Ki. Purified enzymes were used in chromogenic assays. The concentration of inhibitor that causes a 50% decrease in the rate of substrate hydrolysis was determined by linear regression after plotting the relative rates of hydrolysis (compared to the uninhibited control) versus the log of the concentration of the compound of formulae I, Ib and Ic. For calculating the inhibition constant Ki, the IC50 value was corrected for competition with substrate using the formula wherein Km is the Michaelis-Menten constant (Chen and Prusoff, Biochem.
Ki=IC50/{1+(substrate concentration/Km)}
Pharmacol. 22 (1973) 3099-3108; I. H. Segal, Enzyme Kinetics, 1975, John Wiley & Sons, New York, 100-125; which were incorporated herein by reference).
The IC50 was determined by combining in appropriate wells of a Costar half-area microtiter plate 25 μl human factor Xa (Enzyme Research Laboratories, Inc.; South Bend, Ind.) in TBS-PEG; 40 μl 10% (v/v) DMSO in TBS-PEG (uninhibited control) or various concentrations of the compound to be tested diluted in 10% (v/v) DMSO in TBS-PEG; and substrate S-2765 (N(α)-benzyloxycarbonyl-D-Arg-Gly-L-Arg-p-nitroanilide; Kabi Pharmacia, Inc.; Franklin, Ohio) in TBS-PEG.
The assay was performed by pre-incubating the compound of formulae I, Ib and Ic plus enzyme for 10 min. Then the assay was initiated by adding substrate to obtain a final volume of 100 μl. The initial velocity of chromogenic substrate hydrolysis was measured by the change in absorbance at 405 nm using a Bio-tek Instruments kinetic plate reader (Ceres UV900HDi) at 25° C. during the linear portion of the time course (usually 1.5 min after addition of substrate). The enzyme concentration was 0.5 nM and substrate concentration was 140 μM.
The inhibitory activity towards factor VIIa/tissue factor activity was determined using a chromogenic assay essentially as described previously (J. A. Ostrem et al., Biochemistry 37 (1998) 1053-1059 which was incorporated herein by reference). Kinetic assays were conducted at 25° C. in half-area microtiter plates (Costar Corp., Cambridge, Mass.) using a kinetic plate reader (Molecular Devices Spectramax 250). A typical assay consisted of 25 μl human factor VIIa and TF (5 nM and 10 nM, respective final concentration) combined with 40 μl of inhibitor dilutions in 10% DMSO/TBS-PEG buffer (50 mM Tris, 15 mM NaCl, 5 mM CaCl2, 0.05% PEG 8000, pH 8.15). Following a 15 minute preincubation period, the assay was initiated by the addition of 35 μl of the chromogenic substrate S-2288 (D-Ile-Pro-Arg-p-nitroanilide, Pharmacia Hepar Inc., 500 μM final concentration).
Regarding `CC(C)N1CCC(NC(=O)c2cc(-c3cccs3)nn2Cc2cc(-c3ccc(Cl)s3)on2)CC1` [Example 1, 2-[5-(5-Chloro-thiophen-2-yl)-isoxazol-3-ylmethyl]-5-thiophen-2-yl-2H-pyrazole-3-carboxylic acid (1-isopropyl-piperidin-4-yl)-amide], the Ki stood at 30 nM.

Regarding `CC(C)N1CCC(NC(=O)c2cc(-c3cccs3)n(Cc3cc(-c4ccc(Cl)s4)on3)n2)CC1` [Example 2, 1-[5-(5-Chloro-thiophen-2-yl)-isoxazol-3-ylmethyl]-5-thiophen-2-yl-1H-pyrazole-3-carboxylic acid (1-isopropyl-piperidin-4-yl)-amide], the Ki came out at 32 nM.

Regarding `Cc1cc(C(=O)NC2CCN(C(C)C)CC2)n(Cc2cc(-c3ccc(Cl)s3)on2)n1` [Example 3, 2-[5-(5-Chloro-thiophen-2-yl)-isoxazol-3-ylmethyl]-5-methyl-2H-pyrazole-3-carboxylic acid (1-isopropyl-piperidin-4-yl)-amide], the Ki amounted to 112 nM.

Consider `CC(C)N1CCC(NC(=O)c2cc(-c3ccc(Cl)s3)nn2Cc2cc(-c3ccc(Cl)s3)on2)CC1` [Example 5, 5-(5-Chloro-thiophen-2-yl)-2-[5-(5-chloro-thiophen-2-yl)-isoxazol-3-ylmethyl]-2H-pyrazole-3-carboxylic acid (1-isopropyl-piperidin-4-yl)-amide], for which the Ki was 300 nM.

For the molecule `CC(C)N1CCC(NC(=O)c2cc(-c3ccc(Cl)s3)n(Cc3cc(-c4ccc(Cl)s4)on3)n2)CC1` [Example 6, 5-(5-Chloro-thiophen-2-yl)-1-[5-(5-chloro-thiophen-2-yl)-isoxazol-3-ylmethyl]-1H-pyrazole-3-carboxylic acid (1-isopropyl-piperidin-4-yl)-amide], the Ki came to 491 nM.

With `CC(C)N1CCC(NC(=O)c2c(-c3ccc(Cl)cc3Cl)cnn2Cc2cc(-c3ccc(Cl)s3)on2)CC1` [Example 7, 2-[5-(5-Chloro-thiophen-2-yl)-isoxazol-3-ylmethyl]-4-(2,4-dichloro-phenyl)-2H-pyrazole-3-carboxylic acid (1-isopropyl-piperidin-4-yl)-amide], the Ki was 293 nM.

Consider `CCCc1cc(C(=O)NC2CCN(C(C)C)CC2)n(Cc2cc(-c3ccc(Cl)s3)on2)n1` [Example 8, 2-[5-(5-Chloro-thiophen-2-yl)-isoxazol-3-ylmethyl]-5-propyl-2H-pyrazole-3-carboxylic acid (1-isopropyl-piperidin-4-yl)-amide], for which the inhibitory constant (Ki) was determined as 54 nM.

Take `CC(C)N1CCC(NC(=O)c2cc(C(C)(C)C)nn2Cc2cc(-c3ccc(Cl)s3)on2)CC1` [Example 9, 5-tert-Butyl-2-[5-(5-chloro-thiophen-2-yl)-isoxazol-3-ylmethyl]-2H-pyrazole-3-carboxylic acid (1-isopropyl-piperidin-4-yl)-amide]: the Ki came to 332 nM.

Consider `CCCc1nn(Cc2cc(-c3ccc(Cl)s3)on2)c(C(=O)NC2CCN(C(C)C)CC2)c1C#N` [Example 10, 2-[5-(5-Chloro-thiophen-2-yl)-isoxazol-3-ylmethyl]-4-cyano-5-propyl-2H-pyrazole-3-carboxylic acid (1-isopropyl-piperidin-4-yl)-amide], for which the Ki was 41 nM.

Turning to `CCCc1c(C#N)c(C(=O)NC2CCN(C(C)C)CC2)nn1Cc1cc(-c2ccc(Cl)s2)on1` [Example 11, 1-[5-(5-Chloro-thiophen-2-yl)-isoxazol-3-ylmethyl]-4-cyano-5-propyl-1H-pyrazole-3-carboxylic acid (1-isopropyl-piperidin-4-yl)-amide], the Ki worked out at 83 nM.

`CC(C)N1CCC(NC(=O)c2c(C#N)c(-c3cccs3)nn2Cc2cc(-c3ccc(Cl)s3)on2)CC1` [Example 12, 2-[5-(5-Chloro-thiophen-2-yl)-isoxazol-3-ylmethyl]-4-cyano-5-thiophen-2-yl-2H-pyrazole-3-carboxylic acid (1-isopropyl-piperidin-4-yl)-amide]: the Ki stood at 14 nM.

With `CC(C)N1CCC(NC(=O)c2nn(Cc3cc(-c4ccc(Cl)s4)on3)c(-c3cccs3)c2C#N)CC1` [Example 13, 1-[5-(5-Chloro-thiophen-2-yl)-isoxazol-3-ylmethyl]-4-cyano-5-thiophen-2-yl-1H-pyrazole-3-carboxylic acid (1-isopropyl-piperidin-4-yl)-amide], the Ki was determined as 39 nM.

`CC(C)N1CCC(NC(=O)c2cc(-c3cccs3)nn2Cc2csc(-c3ccc(Cl)s3)n2)CC1` [Example 14, 2-[2-(5-Chloro-thiophen-2-yl)-thiazol-4-ylmethyl]-5-thiophen-2-yl-2H-pyrazole-3-carboxylic acid (1-isopropyl-piperidin-4-yl)-amide]: the Ki is 46 nM.

Take `CC(C)N1CCC(NC(=O)c2cc(-c3cccs3)nn2Cc2cc3ccc(Cl)cc3s2)CC1` [Example 15, 2-(6-Chloro-benzo[b]thiophen-2-ylmethyl)-5-thiophen-2-yl-2H-pyrazole-3-carboxylic acid (1-isopropyl-piperidin-4-yl)-amide]: the Ki turned out to be 13 nM.

For `O=C(NCC1CCN(c2ccncc2)CC1)c1cc(-c2cccs2)nn1Cc1cc(-c2ccc(Cl)s2)on1` [Example 16, 2-[5-(5-Chloro-thiophen-2-yl)-isoxazol-3-ylmethyl]-5-thiophen-2-yl-2H-pyrazole-3-carboxylic acid (3,4,5,6-tetrahydro-2H-[1,4′]bipyridinyl-4-ylmethyl)-amide], the Ki worked out at 165 nM.

As for `CC(C)N1CCC(CNC(=O)c2cc(-c3cccs3)nn2Cc2cc(-c3ccc(Cl)s3)on2)CC1` [Example 17, 2-[5-(5-Chloro-thiophen-2-yl)-isoxazol-3-ylmethyl]-5-thiophen-2-yl-2H-pyrazole-3-carboxylic acid (1-isopropyl-piperidin-4-ylmethyl)-amide], the Ki came to 155 nM.

Consider `O=C(NC1CCN(c2ccncc2)CC1)c1cc(-c2cccs2)nn1Cc1cc(-c2ccc(Cl)s2)on1` [Example 18, 2-[5-(5-Chloro-thiophen-2-yl)-isoxazol-3-ylmethyl]-5-thiophen-2-yl-2H-pyrazole-3-carboxylic acid (3,4,5,6-tetrahydro-2H-[1,4′]bipyridinyl-4-yl)-amide], for which the Ki is 205 nM.

For the molecule `CC(C)N1CCC(NC(=O)c2c(C#N)c(-c3cccs3)nn2Cc2ccc(Cl)cc2)CC1` [Example 19, 2-(4-Chloro-benzyl)-4-cyano-5-thiophen-2-yl-2H-pyrazole-3-carboxylic acid (1-isopropyl-piperidin-4-yl)-amide], the Ki was determined as 274 nM.

Consider `COC(=O)c1cc(C(=O)NC2CCN(C(C)C)CC2)n(Cc2cc(-c3ccc(Cl)s3)on2)n1` [Example 20, 1-[5-(5-Chloro-thiophen-2-yl)-isoxazol-3-ylmethyl]-5-(1-isopropyl-piperidin-4-ylcarbamoyl)-1H-pyrazole-3-carboxylic acid methyl ester], for which the Ki was 73 nM.

As for `CC(C)N1CCC(NC(=O)c2cc(C(=O)O)nn2Cc2cc(-c3ccc(Cl)s3)on2)CC1` [Example 21, 1-[5-(5-Chloro-thiophen-2-yl)-isoxazol-3-ylmethyl]-5-(1-isopropyl-piperidin-4-ylcarbamoyl)-1H-pyrazole-3-carboxylic acid], the Ki worked out at 214 nM.

As to `CCOC(=O)c1cc(C(=O)NC2CCN(C(C)C)CC2)n(Cc2cc(-c3ccc(Cl)s3)on2)n1` [Example 23, 1-[5-(5-Chloro-thiophen-2-yl)-isoxazol-3-ylmethyl]-5-(1-isopropyl-piperidin-4-ylcarbamoyl)-1H-pyrazole-3-carboxylic acid ethyl ester], the Ki stood at 144 nM.

Take `CC(C)N1CCC(NC(=O)c2cc(C(=O)N3CCOCC3)nn2Cc2cc(-c3ccc(Cl)s3)on2)CC1` [Example 25, 2-[5-(5-Chloro-thiophen-2-yl)-isoxazol-3-ylmethyl]-5-(morpholine-4-carbonyl)-2H-pyrazole-3-carboxylic acid (1-isopropyl-piperidin-4-yl)-amide]: the Ki was 95 nM.
